Each structure is given as a SMILES string.

Broadly, the viability is a read-out of living cells in per cent, often relative to untreated cells.

This series is described as follows: in vitro. To be noted: human, hela cells, % viability.
For `c1ccc(COc2nccnc2-c2cccs2)nc1` [CBK107055], the viability at 28.5 h, 10 µM amounted to 107%.
`O=C(O)CCC(=O)N1C[C@@H]2C[C@H](C1)c1c(-c3ccc(Cl)cc3)ccc(=O)n1C2` [CBK289190]: the viability at 28.5 h, 10 µM came to 85.9%.
Consider `COCc1ccccc1Cn1cnc2ccccc21` [CBK267496], for which the viability at 28.5 h, 10 µM was 100%.
The result for `CC(Oc1cccc2ccccc12)C(=S)N(C)c1ccccc1` (centres unmarked) [CBK016158] reads 88.2%.
In the case of `COc1cc(CN2CCC(C(=O)c3ccc(F)cc3)CC2)cc(OC)c1OC` [CBK149112] it was 99.5%; in that of `O=C(CC(CN1CCN(c2ccccn2)CC1)C(=O)O)NCc1ccccc1` (centres unmarked) [CBK286649], 89%.
Regarding `C=CCn1c(Cc2csc(NC(=O)Cc3ccc(Cl)cc3)n2)n[nH]c1=S` [CBK295359], the viability at 28.5 h, 10 µM was 96.3%.
The result for `O=C(CC(C(=O)O)n1cncn1)c1ccc(Br)cc1` (centres unmarked) [CBK269305] reads 103%; that for `CCC(CO)Nc1cncc(-c2cccs2)n1` (centres unmarked) [CBK065534], 110%.
With `Cc1ccc(CN(c2ccc(C(=O)O)cc2)S(C)(=O)=O)cc1` [CBK287203], the viability at 28.5 h, 10 µM turned out to be 85%.
The result for `O=C(CSc1nnc2ccccn12)Nc1ccccc1` [CBK287328] reads 109%.
`O=S(=O)(Nc1ccc(N2CCNCC2)c2ccccc12)c1ccc(Cl)s1` [CBK003146C]: the viability at 28.5 h, 10 µM is 104%.
The result for `O=S(=O)(O)c1cc(O)c2c(/N=N/c3c(S(=O)(=O)O)cc4cc(S(=O)(=O)O)cc(O)c4c3O)cc(S(=O)(=O)O)cc2c1` [CBK260934] reads 102%; that for `C=C(C)Cn1c(-c2ccccc2C)nnc1S(=O)(=O)CC(C)C` [CBK200074], 80%; that for `O=C(O)c1[nH]c2ccccc2c1C(c1cccs1)c1c(C(=O)O)[nH]c2ccccc12` [CBK267786], 118%.
In the case of `Cc1nc(-c2ccccc2)sc1C(=O)C1=C(O)C(=O)N(CCN(C)C)C1c1ccc(Cl)cc1` (centres unmarked) [CBK266595] it was 110%.
As for `COc1nn(C)c(CO)c1Cc1c(Cl)cccc1Cl` [CBK092285T], the viability at 28.5 h, 10 µM was 94.2%.
The result for `Cc1cc(CNC(=O)c2cc3ccc(Cl)cc3[nH]2)[nH]n1` [CBK281391] reads 87.8%.
The result for `COCCc1nc(-c2csc(CN(C)C)n2)n(Cc2ccccc2C)n1` [CBK306735] reads 107%; that for `NC(=O)CSc1nc(NCc2ccccc2)nc(N2CCOCC2)n1` [CBK268923], 93.3%.
The result for `CCCNc1nc(-c2ccc(SC)cc2)cn2ccnc12` [CBK066619] reads 95.5%.
Regarding `Cc1noc(NS(=O)(=O)c2ccc(NC(=O)COc3cccc(Br)c3)cc2)c1C` [CBK264086], the viability at 28.5 h, 10 µM came out at 104%.
The result for `O=C(NCc1ccccc1)c1ccc(NCc2ccccc2)c([N+](=O)[O-])c1` [CBK074547] reads 92.9%; that for `CCC(NC1CCc2nc(COC)nn2C1)C1CCC1` (centres unmarked) [CBK304739], 87.8%; that for `CCCN1CCC(CNC(=O)c2cc3ccc(OC)cc3n2C)CC1` [CBK282542], 99.9%.
In the case of `Cc1cc(NC(=O)C2CCCCC2)nc2c1c(=O)oc1ccccc12` [CBK291247], the viability at 28.5 h, 10 µM worked out at 83.1%.
In the case of `NC(=O)CCN(CCC(N)=O)S(=O)(=O)c1ccc(N)cc1` [CBK262134] it was 118%.
The result for `O=C(c1ccncc1)N1CCc2cc(S(=O)(=O)N3CCOCC3)ccc21` [CBK287800] reads 92.8%.
`Cc1noc(C)c1NC(=O)c1ccccn1` [CBK200299]: the viability at 28.5 h, 10 µM was found to be 95.6%.
`Cc1nc(C)n(CC2CCCCN2Cc2cn3ccccc3c2C#N)n1` (centres unmarked) [CBK306102]: the viability at 28.5 h, 10 µM came to 85.1%.
The result for `O=C(CN1CCOCC1)N1CCN(C(=O)c2ccc(Cl)cc2Cl)CC1` [CBK028992] reads 97.7%.
The result for `O=C(c1cncnc1)N1CCc2ccccc21` [CBK200272] reads 102%; that for `COc1ccccc1CC(C)NC(=O)c1ccc2nc(C)[nH]c2c1` (centres unmarked) [CBK283261], 86.1%; that for `CN(Cc1ccncn1)C(=O)c1cn(CC2CCCO2)nn1` (centres unmarked) [CBK307081], 108%.
With `O=C(NCC1(c2ccccc2)CCCC1)c1ccc(=O)n(CC(=O)N2CCCCC2)c1` [CBK286082], the viability at 28.5 h, 10 µM worked out at 93.5%.
On to `CN(C)CCN1CCN(c2ccc(-c3ccc(OC(F)(F)F)cc3)cn2)CC1` [CBK036796], for which the viability at 28.5 h, 10 µM was found to be 94.7%.
The result for `COc1cc(Nc2cc(-c3ccco3)ncn2)cc(OC)c1OC` [CBK090706] reads 90.3%; that for `O=C(CCc1ccccc1)NNC(=O)C1C2C=CC(C2)C1C(=O)O` (centres unmarked) [CBK267541], 94.2%; that for `COc1ccc(CNC(=O)N(CCc2ccccc2)CC(C)(C)CN)cc1` [CBK000463C], 119%.
In the case of `Cc1cc(C)c2nc(-n3cncn3)c(C)cc2c1` [CBK025958] it was 88.9%.
The result for `Cc1ccccc1-c1ccc(C(=O)NCCc2ccc(S(N)(=O)=O)cc2)c(NCc2cccnc2)n1` [CBK076116] reads 98.4%.
Consider `CC(=O)NCC(=O)N1CCC2(CC1)CC(=O)c1cc(Br)ccc1O2` [CBK156447], for which the viability at 28.5 h, 10 µM was 106%.
In the case of `NC(=O)NS(=O)(=O)c1ccc(NC(=S)NC(=O)c2ccco2)cc1` [CBK261068] it was 117%.
`O=C(CCS(=O)(=O)c1ccc(Br)cc1)OCC(=O)c1ccccc1` [CBK021886]: the viability at 28.5 h, 10 µM was 104%.
In the case of `Cc1ccc(CNC(=O)c2nnc(C(=O)Nc3cccc(Cl)c3)s2)o1` [CBK294404] it was 95.2%.
Regarding `COc1ccccc1CN1CCC(Cc2ccccc2-c2ccc(C)cc2C)(C(=O)O)CC1` [CBK286419], the viability at 28.5 h, 10 µM worked out at 88.4%.
In the case of `Cc1[nH]c2ccccc2c1C(=O)CSc1nccn1Cc1ccccc1` [CBK297905] it was 76.6%.
In the case of `CCCCc1nnc(CC(C)C)o1` [CBK008679] it was 106%; in that of `COCCn1c(SCc2cn3c(C)cccc3n2)nc(C)c1C` [CBK304050], 83.9%; in that of `O=C(O)c1cn(C2CC2)c2cc(N3CCN(C(=O)Cc4ccccc4Cl)CC3)c(F)cc2c1=O` [CBK297136], 90.4%.
The result for `CCn1c(C2CCN(C(=O)CCCn3cncn3)CC2)nn(C)c1=O` [CBK307326] reads 92.4%.
As to `CC(=O)Nc1nc(-c2cc3ccccc3oc2=O)cs1` [CBK287312], the viability at 28.5 h, 10 µM stood at 106%.
For the compound `CC(=O)Nc1cccc(-c2nccnc2NS(C)(=O)=O)c1` [CBK050740], the viability at 28.5 h, 10 µM turned out to be 108%.
The result for `Cc1c(Cl)cccc1S(=O)(=O)Nc1ccc(C(=O)O)cc1` [CBK034050] reads 86.4%.
`O=C(/C=C/c1ccc2c(c1)OCO2)Nc1ccc(S(=O)(=O)Nc2cnc3ccccc3n2)cc1` [CBK265445]: the viability at 28.5 h, 10 µM amounted to 86.9%.
As to `COC(C)CN(C)C(=O)c1nnn(-c2ccc3ncccc3c2)c1C` (centres unmarked) [CBK304484], the viability at 28.5 h, 10 µM amounted to 85.8%.
The result for `CNC(=O)C1(Cc2ccccc2-c2cccs2)CCN(C(=O)COc2ccccc2)CC1` [CBK285684] reads 118%.
The result for `CCc1nc2cc(NC(=O)c3csc(C(C)=O)c3)ccc2n1C` [CBK282522] reads 105%.
For the compound `CN(CCCc1nc(-c2ccc(Cl)cc2)no1)S(=O)(=O)c1ccc([N+](=O)[O-])cc1` [CBK267365], the viability at 28.5 h, 10 µM came out at 96%.
The result for `Cc1sc(C(N)=O)cc1[N+](=O)[O-]` [CBK066863] reads 106%; that for `Cc1nc(CN2C(=O)CC(Cc3cnn(C)c3)C2=O)nc2ccccc12` (centres unmarked) [CBK305415], 105%.
In the case of `O=C(NCc1ccccc1)c1ccco1` [CBK086713] it was 118%.
Regarding `CCNC(=O)N[C@H]1CC[C@]2(C)CCC([C@H](C)C(=O)N3CCCC3)[C@H](O)[C@H]2[C@@H]1C` (some centres unmarked) [CBK289456], the viability at 28.5 h, 10 µM was 116%.
For the compound `COc1cccc(NC(=O)NCCc2ccncc2)c1` [CBK270022], the viability at 28.5 h, 10 µM was found to be 90.3%.
On to `COc1ccc(NC(=O)c2cc(-c3cccc(Cl)c3)nc3ccccc23)c([N+](=O)[O-])c1` [CBK267777], for which the viability at 28.5 h, 10 µM is 86.7%.
The result for `Cc1cc(CC(=O)N2CCN(CCNC(=O)C3CCCC3)CC2)no1` [CBK306376] reads 113%; that for `O=C(/C=C/c1cn(C2OC(CO)C(O)C2O)c(=O)[nH]c1=O)NCCCCCCNC(=O)C(F)(F)F` (centres unmarked) [CBK201231], 99.1%; that for `CN(Cc1nccs1)C(=O)NC1CCN(Cc2cccc(O)c2)CC1` [CBK307657], 96.7%.
In the case of `O=C(NC(C(=O)N/N=C/c1cccc(O)c1)c1n[nH]c(=O)c2ccccc12)c1ccccc1` (centres unmarked) [CBK262853] it was 89%; in that of `CCN(CC)C(=O)c1cccc(NS(=O)(=O)c2cccc(C(=O)O)c2)c1` [CBK296943], 97.6%; in that of `CC(C)Nc1cc(OCCCc2ccncc2)ncn1` [CBK115886], 104%.
The result for `COC1C(O)C(CO)OC1n1cc(F)c(=S)[nH]c1=O` (centres unmarked) [CBK201168] reads 96%.
As for `CNC(=O)c1sc2ccccc2c1C1CN(Cc2cn(C)c3ccc(F)cc23)CCO1` (centres unmarked) [CBK285868], the viability at 28.5 h, 10 µM is 87.4%.
Regarding `CS(=O)(=O)Nc1ccc2c(ccn2Cc2ccccc2)c1` [CBK159527], the viability at 28.5 h, 10 µM was found to be 104%.
In the case of `CC(C)(CO)CNc1nc(-c2cccnc2)cnc1N` [CBK063475] it was 100%; in that of `Cn1c(CNc2ccccc2[N+](=O)[O-])c(C#N)c2ccccc21` [CBK115324], 98.1%.
The result for `O=C(O)CC(NCc1ccccc1)C(=O)Nc1ccccc1Br` (centres unmarked) [CBK267118] reads 98%; that for `CC[C@H]1CN(S(C)(=O)=O)CC[C@H]1CC(=O)NCc1ccco1` [CBK289141], 89.2%; that for `CC(SCc1ccccc1)C(=O)NCC1CCN(c2ccccc2)C1` (centres unmarked) [CBK298329], 89.5%.
Take `O=C(NCCc1ccc(Cl)cc1)C1CCN(C(=O)c2ccc3nsnc3c2)C1` (centres unmarked) [CBK285553]: the viability at 28.5 h, 10 µM is 95.2%.

Values taken from PMC12040169 (PLOS Biology, 2025).
